Assay [1] is described as follows: Inhibition of N-terminal His6-tagged Escherichia coli DXR after 2 mins in presence of NADPH.
The subject of the next assay is Escherichia coli. Kind of assay: Antibacterial activity against Escherichia coli assessed as growth inhibition at 400 nmol by disc diffusion method. The class given is functional, organism-based. (A growth-free zone around the sample is the usual read-out of agar diffusion tests.)

The source made the active and inactive calls. The rule behind the calls is not given here.

Turning to `O=C(CCCCc1nnn[nH]1)NO`, in assay [1], the IC50 stood at 44000 µM. In the assay with Escherichia coli, the “growth inhibition (GI)” value is “inactive”. In the same order, the values of `CN(O)C(=O)CCc1nnn[nH]1` are 47000 µM and “inactive”. As to `CN(O)C(=O)CCCc1nnn[nH]1`, in assay [1], the IC50 was 800 µM. Besides, the “growth inhibition (GI)” value with Escherichia coli was “inactive”. Take `CN(O)C(=O)CCCP(=O)(O)O`: the IC50 in assay [1] turned out to be 0.048 µM. Take `O=CN(O)CCCP(=O)(O)O` [FOSMIDOMYCIN]: in assay [1], the IC50 amounted to 0.032 µM.

In the case of `CN(O)C(=O)CCCCc1nnn[nH]1`, the IC50 in assay [1] is 4900 µM. For the same compound, the “growth inhibition (GI)” value with Escherichia coli is “inactive”.

A word on the IC50: it is the midpoint of a concentration-inhibition curve.

The values above are taken from ChEMBL document CHEMBL2331428, “Synthesis of tetrazole analogues of phosphonohydroxamic acids: an attempt to improve the inhibitory activity against the DXR” (Bioorg Med Chem Lett, 2013).
